Measured values from publication PMC12238723, “Phase I Clinical Trial of CVL218, a Novel PARP1/2 Inhibitor, in Patients with Advanced Solid Tumors” (MedComm, 2025).

Test system: patients with advanced solid tumors
Experiment: Treatment-related adverse events (CTCAE v5.0), phase I dose escalation
Assay type: in vivo
Text: This study was a single‐arm, dose‐escalation phase I trial conducted in Sun Yat‐sen University Cancer Center in China. This study assessed CVL218 in patients with histologically or cytologically confirmed advanced solid tumors who were in PD after standard therapeutic regimens or lacked standard treatment options. Inclusion criteria included: age 18–75 years; with at least one measurable and evaluable target lesion per Response Evaluation Criteria in Solid Tumors 1.1 (RECIST 1.1); ECOG performance status of 0 or 1; adequate hematological, renal, cardiac, and hepatic functions and a life expectancy ≥12 weeks. Key exclusion criteria included prior usage of PARP inhibitors; allergic to the research drug or its components; with active, unstable systemic diseases or active, uncontrolled infection; a history of other malignancies within 5 years, and pregnant or lactating women.
CVL218 was administered orally, and this dose‐escalation trial included nine dose levels: 100 mg QD (50 mg BID), 200 mg QD (100 mg BID), 400 mg QD (200 mg BID), 700 mg QD (350 mg BID), 1000 mg QD (500 mg BID), 1200 mg QD (600 mg BID), 1400 mg QD (700 mg BID), 1700 mg QD (850 mg BID), and 2000 mg QD (1000 mg BID). Patients enrolled in the study received a single oral dose on the first day, followed by continuous multiple dosing (twice a day taking 12 h apart) after 72 h, with the treatment cycle lasting 4 weeks. The period during which patients received a single dose is designated as cycle 0 (C0), lasting 72 h. After this period, patients begin multiple dosing, referred to as cycle 1 (C1). An initial accelerated titration design was employed for the three lowest dose groups, and the “3+3” design was applied starting with the 300 mg BID cohort.
The primary objectives were to assess safety and tolerability as well as to determine the MTD, DLT, and dose recommended for further study. DLT was defined as any of the following events occurring during cycle 0 (including 72 h wash‐out period after a single dose) and cycle 1 per Common Terminology Criteria for Adverse Events (CTCAE) version 5.0: grade 4 anemia; grade 4 neutropenia; grade 3 neutropenia with fever ≥38.5°C; grade 4 thrombocytopenia; grade 3 thrombocytopenia associated with bleeding; grade ≥2 neurotoxicity; any other grade ≥3 nonhematological toxicities (excluding alopecia). The secondary objectives were to assess the PK and preliminary efficacy of CVL218.
Subjects who received at least one dose of CVL218 with postadministration safety records were included in safety analysis set. Subjects who received at least one dose of CVL218 with at least one evaluable PK parameter were included in PK analysis set. Per‐protocol set were used for efficacy analysis. Descriptive statistics of safety were presented per CTCAE v5.0. The PK parameters T max and T 1/2 were shown as the median (min, max) and mean ± SD, respectively. A two‐sided p < 0.05 was considered to indicate statistical significance. Statistical analysis was performed by using GraphPad prism 8.0.2 and R‐4.3.3.

SMILES: CNCc1ccc(-c2cc3cc(F)cc(C(N)=O)c3o2)cc1.Cl [CVL218]
- Headache (200 mg BID, ≥G3): 0 n (%)
- Hypoalbuminemia (200 mg BID, ≥G3): 0 n (%)
- Infusion site pain (200 mg BID, ≥G3): 0 n (%)
- Laboratory test disorders (200 mg BID, ≥G3): 0 n (%)
- Limb discomfort (200 mg BID, ≥G3): 0 n (%)
- Lipase increased (200 mg BID, ≥G3): 0 n (%)
- Metabolic disorders (200 mg BID, ≥G3): 0 n (%)
- Musculoskeletal discomfort (200 mg BID, ≥G3): 0 n (%)
- Musculoskeletal disorders (200 mg BID, ≥G3): 0 n (%)
- Nausea (200 mg BID, ≥G3): 0 n (%)
- Nervous system disorders (200 mg BID, ≥G3): 0 n (%)
- Neutrophil count decreased (200 mg BID, ≥G3): 0 n (%)
- Neutrophil count increased (200 mg BID, ≥G3): 0 n (%)
- Palpitations (200 mg BID, ≥G3): 0 n (%)
- Protein urine present (200 mg BID, ≥G3): 0 n (%)
- Proteinuria (200 mg BID, ≥G3): 0 n (%)
- Rash (200 mg BID, ≥G3): 0 n (%)
- Renal & urinary disorders (200 mg BID, ≥G3): 0 n (%)
- Renal failure (200 mg BID, ≥G3): 0 n (%)
- Reproductive disorders (200 mg BID, ≥G3): 0 n (%)
- Skin disorders (200 mg BID, ≥G3): 0 n (%)
- Urinary occult blood positive (200 mg BID, ≥G3): 0 n (%)
- Vomiting (200 mg BID, ≥G3): 0 n (%)
- WBC count decreased (200 mg BID, ≥G3): 0 n (%)
- WBC count increased (200 mg BID, ≥G3): 0 n (%)
- Infusion site pain (350 mg BID, ALL): 0 n (%)
- WBC count increased (350 mg BID, ALL): 0 n (%)
- ALT increased (350 mg BID, ≥G3): 0 n (%)
- AST increased (350 mg BID, ≥G3): 0 n (%)
- Abdominal distension (350 mg BID, ≥G3): 0 n (%)
- Abdominal pain (350 mg BID, ≥G3): 0 n (%)
- Abdominal pain upper (350 mg BID, ≥G3): 0 n (%)
- Amylase increased (350 mg BID, ≥G3): 0 n (%)
- Anemia (350 mg BID, ≥G3): 0 n (%)
- Any AE related to study drug (350 mg BID, ≥G3): 0 n (%)
- Asthenia (350 mg BID, ≥G3): 0 n (%)
- Blood creatinine increased (350 mg BID, ≥G3): 0 n (%)
- Blood system disorders (350 mg BID, ≥G3): 0 n (%)
- Blood triglycerides increased (350 mg BID, ≥G3): 0 n (%)
- Blood urea increased (350 mg BID, ≥G3): 0 n (%)
- Cardiac disorders (350 mg BID, ≥G3): 0 n (%)
- Chest discomfort (350 mg BID, ≥G3): 0 n (%)
- Constipation (350 mg BID, ≥G3): 0 n (%)
- Decreased appetite (350 mg BID, ≥G3): 0 n (%)
- Diarrhea (350 mg BID, ≥G3): 0 n (%)
- Dizziness (350 mg BID, ≥G3): 0 n (%)
- Erectile dysfunction (350 mg BID, ≥G3): 0 n (%)
- Gastrointestinal disorders (350 mg BID, ≥G3): 0 n (%)
- General disorders (350 mg BID, ≥G3): 0 n (%)
- Gingival bleeding (350 mg BID, ≥G3): 0 n (%)
- Granulocyte count increased (350 mg BID, ≥G3): 0 n (%)
- Headache (350 mg BID, ≥G3): 0 n (%)
- Hypoalbuminemia (350 mg BID, ≥G3): 0 n (%)
- Infusion site pain (350 mg BID, ≥G3): 0 n (%)
- Laboratory test disorders (350 mg BID, ≥G3): 0 n (%)
- Limb discomfort (350 mg BID, ≥G3): 0 n (%)
- Lipase increased (350 mg BID, ≥G3): 0 n (%)
- Metabolic disorders (350 mg BID, ≥G3): 0 n (%)
- Musculoskeletal discomfort (350 mg BID, ≥G3): 0 n (%)
- Musculoskeletal disorders (350 mg BID, ≥G3): 0 n (%)
- Nausea (350 mg BID, ≥G3): 0 n (%)
- Nervous system disorders (350 mg BID, ≥G3): 0 n (%)
- Neutrophil count decreased (350 mg BID, ≥G3): 0 n (%)
- Neutrophil count increased (350 mg BID, ≥G3): 0 n (%)
- Palpitations (350 mg BID, ≥G3): 0 n (%)
- Protein urine present (350 mg BID, ≥G3): 0 n (%)
- Proteinuria (350 mg BID, ≥G3): 0 n (%)
- Rash (350 mg BID, ≥G3): 0 n (%)
- Renal & urinary disorders (350 mg BID, ≥G3): 0 n (%)
- Renal failure (350 mg BID, ≥G3): 0 n (%)
- Reproductive disorders (350 mg BID, ≥G3): 0 n (%)
- Skin disorders (350 mg BID, ≥G3): 0 n (%)
- Urinary occult blood positive (350 mg BID, ≥G3): 0 n (%)
- Vomiting (350 mg BID, ≥G3): 0 n (%)
- WBC count decreased (350 mg BID, ≥G3): 0 n (%)
- WBC count increased (350 mg BID, ≥G3): 0 n (%)
- Infusion site pain (500 mg BID, ALL): 0 n (%)
- WBC count increased (500 mg BID, ALL): 1 (25) n (%)
- ALT increased (500 mg BID, ≥G3): 0 n (%)
- AST increased (500 mg BID, ≥G3): 0 n (%)
- Abdominal distension (500 mg BID, ≥G3): 0 n (%)
- Abdominal pain (500 mg BID, ≥G3): 0 n (%)
- Abdominal pain upper (500 mg BID, ≥G3): 0 n (%)
- Amylase increased (500 mg BID, ≥G3): 0 n (%)
- Anemia (500 mg BID, ≥G3): 0 n (%)
- Any AE related to study drug (500 mg BID, ≥G3): 1 (25.0) n (%)
- Asthenia (500 mg BID, ≥G3): 0 n (%)
- Blood creatinine increased (500 mg BID, ≥G3): 0 n (%)
- Blood system disorders (500 mg BID, ≥G3): 0 n (%)
- Blood triglycerides increased (500 mg BID, ≥G3): 0 n (%)
- Blood urea increased (500 mg BID, ≥G3): 0 n (%)
- Cardiac disorders (500 mg BID, ≥G3): 0 n (%)
- Chest discomfort (500 mg BID, ≥G3): 0 n (%)
- Constipation (500 mg BID, ≥G3): 0 n (%)
- Decreased appetite (500 mg BID, ≥G3): 0 n (%)
- Diarrhea (500 mg BID, ≥G3): 0 n (%)
- Dizziness (500 mg BID, ≥G3): 0 n (%)
- Erectile dysfunction (500 mg BID, ≥G3): 0 n (%)
- Gastrointestinal disorders (500 mg BID, ≥G3): 0 n (%)
- General disorders (500 mg BID, ≥G3): 0 n (%)
- Gingival bleeding (500 mg BID, ≥G3): 0 n (%)
- Granulocyte count increased (500 mg BID, ≥G3): 0 n (%)
- Headache (500 mg BID, ≥G3): 0 n (%)
- Hypoalbuminemia (500 mg BID, ≥G3): 0 n (%)
- Infusion site pain (500 mg BID, ≥G3): 0 n (%)
- Limb discomfort (500 mg BID, ≥G3): 0 n (%)
- Metabolic disorders (500 mg BID, ≥G3): 0 n (%)
- Musculoskeletal discomfort (500 mg BID, ≥G3): 0 n (%)
- Musculoskeletal disorders (500 mg BID, ≥G3): 0 n (%)
- Nausea (500 mg BID, ≥G3): 0 n (%)
- Nervous system disorders (500 mg BID, ≥G3): 0 n (%)
- Neutrophil count decreased (500 mg BID, ≥G3): 0 n (%)
- Neutrophil count increased (500 mg BID, ≥G3): 0 n (%)
- Palpitations (500 mg BID, ≥G3): 0 n (%)
- Protein urine present (500 mg BID, ≥G3): 0 n (%)
- Proteinuria (500 mg BID, ≥G3): 0 n (%)
- Rash (500 mg BID, ≥G3): 0 n (%)
- Renal & urinary disorders (500 mg BID, ≥G3): 0 n (%)
- Renal failure (500 mg BID, ≥G3): 0 n (%)
- Reproductive disorders (500 mg BID, ≥G3): 0 n (%)
- Skin disorders (500 mg BID, ≥G3): 0 n (%)
- Urinary occult blood positive (500 mg BID, ≥G3): 0 n (%)
- Vomiting (500 mg BID, ≥G3): 0 n (%)
- WBC count decreased (500 mg BID, ≥G3): 0 n (%)
- WBC count increased (500 mg BID, ≥G3): 0 n (%)
- Infusion site pain (600 mg BID, ALL): 0 n (%)
- WBC count increased (600 mg BID, ALL): 0 n (%)
- ALT increased (600 mg BID, ≥G3): 0 n (%)
- AST increased (600 mg BID, ≥G3): 0 n (%)
